# Biological target: PI-3 kinase γ (Homo sapiens, UniProt P48736)
# Experiment: PI3Kγ inhibitory activity, PI3-kinase HTRF assay (inhibition ratio)
# Format: biochemical
# Details: 0.5 h; PI3Kγ, compound at 50 μM
# Experimental: The PI3Kγ inhibitory activity of a compound was evaluated using PI3-kinase HTRF™ assay (Millipore) according to the following procedure:
# To each well of a testing plate, 5 μL of a compound solution containing 10% DMSO (200 μmol/L or 40 μmol/L as the concentration of the compound), 5 μL of a substrate solution (40 μmol/L phosphatidylinositol (4,5)-bisphosphate, 20 mmol/L MgCl2, 10 mmol/L DTT), and 5 μL of a enzyme solution (80 μg/mL PI-3 kinase γ, 10 mmol/L MgCl2, 5 mmol/L DTT) were added, and then allowed to stand for 10 minutes.
# Then, 5 μL of a reaction solution (40 μmol/L ATP, 10 mmol/L MgCl2, 5 mmol/L DTT) was added thereto. After reacting for 30 minutes at room temperature, 5 μL of a solution containing EDTA and biotinylated phosphatidylinositol (3,4,5)-triphosphate were added to quench the reaction.
# 5 μL of a detection reagent containing a europium-labeled anti-GST antibody, the GST-tagged PH domain, and allophycocyanin-labeled streptavidin was added thereto. After 18 hours, HTRF (excitation wavelength: 330 nm, measured wavelengths: 620 nm and 665 nm) was measured.
# HTRF ratio was defined as the value obtained by dividing the amount of fluorescence obtained at the measured wavelength 665 nm by the amount of fluorescence obtained at 620 nm. The HTRF ratio in the absence of a compound was defined as 100% activity and the HTRF ratio in the absence of PI-3 kinase γ was defined as 0% activity to calculate an inhibition ratio which was defined as the PI3Kγ inhibitory activity of a compound at 50 μmol/L or 10 μmol/L.
# Chain of PI-3 kinase γ (P48736 whole entry): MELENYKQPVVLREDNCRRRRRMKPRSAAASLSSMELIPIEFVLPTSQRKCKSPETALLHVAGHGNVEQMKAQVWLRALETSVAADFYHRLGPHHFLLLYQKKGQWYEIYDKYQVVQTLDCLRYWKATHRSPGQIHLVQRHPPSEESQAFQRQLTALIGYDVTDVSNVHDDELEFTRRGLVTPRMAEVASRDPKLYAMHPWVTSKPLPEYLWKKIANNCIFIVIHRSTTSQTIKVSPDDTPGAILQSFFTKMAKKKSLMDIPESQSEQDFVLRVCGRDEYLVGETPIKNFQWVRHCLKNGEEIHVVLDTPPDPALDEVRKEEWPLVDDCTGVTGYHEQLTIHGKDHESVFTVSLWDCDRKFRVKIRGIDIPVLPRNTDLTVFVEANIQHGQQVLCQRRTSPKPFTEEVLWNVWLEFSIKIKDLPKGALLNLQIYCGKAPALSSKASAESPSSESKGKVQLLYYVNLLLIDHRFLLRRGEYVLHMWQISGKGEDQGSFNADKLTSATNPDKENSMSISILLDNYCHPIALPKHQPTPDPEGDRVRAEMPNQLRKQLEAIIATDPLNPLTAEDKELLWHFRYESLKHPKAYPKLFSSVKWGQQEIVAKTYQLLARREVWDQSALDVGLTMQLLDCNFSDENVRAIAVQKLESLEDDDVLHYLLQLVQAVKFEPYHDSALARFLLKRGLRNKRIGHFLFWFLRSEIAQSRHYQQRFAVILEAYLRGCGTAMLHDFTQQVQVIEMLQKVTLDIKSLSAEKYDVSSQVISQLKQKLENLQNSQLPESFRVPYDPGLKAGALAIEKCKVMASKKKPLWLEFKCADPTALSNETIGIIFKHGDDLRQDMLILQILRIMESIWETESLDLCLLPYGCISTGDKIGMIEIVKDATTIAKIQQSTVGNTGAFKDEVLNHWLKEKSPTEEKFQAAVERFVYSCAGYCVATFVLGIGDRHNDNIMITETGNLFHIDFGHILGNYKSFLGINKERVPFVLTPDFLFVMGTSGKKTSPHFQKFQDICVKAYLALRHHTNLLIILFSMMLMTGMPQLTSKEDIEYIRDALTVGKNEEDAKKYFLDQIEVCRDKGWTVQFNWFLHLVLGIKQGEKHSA
row,Structure (SMILES),inhibition at 50 µM
1,CC(=O)Nc1cc2n(n1)CCN2C(=O)c1ccccc1 [Compound I-2],≥ 95%
2,COc1ccc(Nc2cc3n(n2)CCN3C(=O)c2ccccc2)cc1 [Compound I-4],≥ 95%
3,CNC(=O)Nc1cc2n(n1)CCN2C(=O)c1ccccc1 [Compound I-5],89%
4,CC(=O)Nc1cc2n(C(=O)c3ccccc3)ccn2n1 [Compound I-6],90%
5,CC(=O)Nc1cc2n(C(=O)OC(C)(C)C)ccn2n1 [Compound I-7],≥ 95%
6,CNC(=O)Nc1cc2n(n1)CCN2C(=O)OC(C)(C)C [Compound I-8],≥ 95%
7,CNC(=O)Nc1cc2n(n1)CCN2C(=O)c1ccc2c(c1)CCO2 [Compound I-35],77%
8,CNC(=O)Nc1cc2n(n1)CCN2C(=O)c1nc2ccccc2s1 [Compound I-40],73%
9,CNC(=O)Nc1cc2n(n1)CCN2c1ccccc1 [Compound I-50],≥ 95%
10,CNC(=O)Nc1cc2n(n1)CCN2C(=O)Oc1ccccc1 [Compound I-51],87%
11,CCOC(=O)CNC(=O)Nc1cc2n(n1)CCN2C(=O)OC(C)(C)C [Compound I-57],≥ 95%
12,CC(C)(C)OC(=O)N1CCn2nc(NC(=O)NCC(=O)O)cc21 [Compound I-59],94%
13,CNC(=O)Nc1cc2n(n1)CCN(c1cncc(OC)c1)C2 [Compound I-65],≥ 95%
14,CNC(=O)Nc1nc2c(s1)CN(C(=O)OC(C)(C)C)CC2 [Compound I-66],92%
15,CNC(=O)Nc1cc2n(n1)CCN2c1cccc(Cl)c1 [Compound I-67],≥ 95%
16,CNC(=O)Nc1cc2n(n1)CCN2c1cncc(OC)c1 [Compound I-79],≥ 95%
17,CNC(=O)Nc1cc2n(n1)CCN2c1cccnc1 [Compound I-80],≥ 95%
18,CNC(=O)Nc1cc2n(n1)CCN(c1cccc(C(=O)OC)c1)C2 [Compound I-81],75%
19,CCOC(=O)c1cccc(N2CCn3nc(NC(=O)NC)cc32)c1 [Compound I-83],≥ 95%
20,CNC(=O)Nc1cc2n(n1)CCN2c1cccc(-c2cnco2)c1 [Compound I-84],≥ 95%
21,CCOC(=O)c1ccc(N2CCn3nc(NC(=O)NC)cc32)cc1 [Compound I-85],≥ 95%
22,CNC(=O)Nc1cc2n(n1)CCN(c1cccnc1)C2 [Compound I-86],90%
23,CNC(=O)Nc1cc2n(n1)CCN2c1ccccn1 [Compound I-88],85%
24,CNC(=O)Nc1cc2n(n1)CCN2c1cccc(C(=O)O)c1 [Compound I-91],≥ 95%
25,CNC(=O)Nc1nc2c(s1)CN(c1nccc(OC)n1)CC2 [Compound I-93],92%
26,CNC(=O)Nc1nc2c(s1)CN(c1ccnc(Cl)n1)CC2 [Compound I-94],≥ 95%

row,Structure (SMILES),inhibition at 50 µM
1,CNC(=O)Nc1nc2c(s1)CN(c1nccc(C(F)(F)F)n1)CC2 [Compound I-95],93%
2,CNC(=O)Nc1cc2n(n1)CCN2c1ccc(C(=O)O)cc1 [Compound I-97],≥ 95%
3,CNC(=O)Nc1nc2c(s1)CN(c1cc(C(=O)OC)nc(Cl)n1)CC2 [Compound I-100],≥ 95%
4,CNC(=O)Nc1nc2c(s1)CN(c1cc(C(=O)O)nc(Cl)n1)CC2 [Compound I-101],≥ 95%
5,CNC(=O)Nc1cc2n(n1)CCN2c1ccc(Cl)cc1 [Compound I-102],≥ 95%
6,CNC(=O)Nc1cc2n(n1)CCN2c1cccc(O)c1 [Compound I-105],≥ 95%
7,CNC(=O)Nc1nc2c(s1)CN(c1cc(Cl)ncn1)CC2 [Compound I-106],≥ 95%
8,CNC(=O)Nc1nc2c(s1)CN(c1cc(OC)nc(OC)n1)CC2 [Compound I-107],≥ 95%
9,CNC(=O)Nc1nc2c(s1)CN(c1cc(C(N)=O)nc(Cl)n1)CC2 [Compound I-108],≥ 95%
10,CNC(=O)Nc1nc2c(s1)CN(c1cc(C(=O)NC3CCCC3)nc(Cl)n1)CC2 [Compound I-110],≥ 95%
11,CNC(=O)Nc1nc2c(s1)CN(c1cc(Cl)nc(Cl)n1)CC2 [Compound I-111],≥ 95%
12,CNC(=O)Nc1cc2n(n1)CCN2c1ccc(OC)cc1 [Compound I-114],83%
13,CNC(=O)Nc1cc2n(n1)CCN2c1nc2ccccc2s1 [Compound I-115],≥ 95%
14,COC(=O)c1cc(N2CCc3nc(NC(C)=O)sc3C2)nc(Cl)n1 [Compound I-116],≥ 95%
15,CC(C)(C)OC(=O)N1CCc2nc(NC(=O)Nc3cccc(Cl)c3)sc2C1 [Compound I-117],76%
16,CNC(=O)Nc1nc2c(s1)CN(c1cc(C(=O)NC)nc(Cl)n1)CC2 [Compound I-119],≥ 95%
17,CNC(=O)Nc1nc2c(s1)CN(c1cc(N)nc(Cl)n1)CC2 [Compound I-122],76%
18,CNC(=O)Nc1nc2c(s1)CN(c1cncc(Cl)n1)CC2 [Compound I-123],≥ 95%
19,COC(=O)c1cc(N2CCc3nc(NC(=O)c4cccc(Cl)c4)sc3C2)nc(Cl)n1 [Compound I-126],≥ 95%
20,CNC(=O)Nc1cc2n(n1)CCN2c1cc(C(=O)OC)nc(Cl)n1 [Compound I-127],79%
21,CNC(=O)Nc1nc2c(s1)CN(c1cc(Cl)nc(SC)n1)CC2 [Compound I-128],≥ 95%
22,CCOC(=O)CNC(=O)Nc1cc2n(n1)CCN2c1ccccc1 [Compound I-129],81%
23,CC(=O)Nc1cc2n(n1)CCN2C(=O)OC(C)(C)C [Compound I-130],≥ 95%
24,O=C(O)CNC(=O)Nc1cc2n(n1)CCN2c1ccccc1 [Compound I-132],≥ 95%
25,CNC(=O)Nc1cc2n(n1)CCN(c1cc(OC)nc(OC)n1)C2 [Compound I-133],≥ 95%
26,O=C(Nc1cc2n(n1)CCN2c1ccccc1)c1ccccc1 [Compound I-135],≥ 95%

row,Structure (SMILES),inhibition at 50 µM
1,Nc1cc(N2CCc3nc(NC(=O)c4cccc(Cl)c4)sc3C2)nc(Cl)n1 [Compound I-137],87%
2,CNC(=O)Nc1nc2c(s1)CN(c1cc(Oc3ccccc3)nc(OC)n1)CC2 [Compound I-138],≥ 95%
3,COc1cccc(N2CCn3nc(NC(C)=O)cc32)c1 [Compound I-139],≥ 95%
4,CC(=O)Nc1cc2n(n1)CCN2c1ccccc1 [Compound I-140],≥ 95%
5,CNC(=O)Nc1cc2n(n1)CCN2c1ccncc1 [Compound I-141],≥ 95%
6,COc1cc(N2CCc3nc(NC(=O)NCCC(=O)OC(C)(C)C)sc3C2)nc(OC)n1 [Compound I-143],≥ 95%
7,CNC(=O)Nc1cc2n(n1)CCN2c1ccc(C(=O)OC)c(OC)c1 [Compound I-144],≥ 95%
8,CNC(=O)Nc1nc2c(s1)CN(c1cc(OC)nc(N)n1)CC2 [Compound I-145],≥ 95%
9,CNC(=O)Nc1cc2n(n1)CCN2c1cc(Br)cc(C(=O)OC)c1 [Compound I-146],≥ 95%
10,CNC(=O)Nc1nc2c(s1)CN(c1cc(Oc3ccccc3)nc(SC)n1)CC2 [Compound I-147],≥ 95%
11,CNC(=O)Nc1cc2n(n1)CCN2c1ccc(C(=O)O)c(OC)c1 [Compound I-148],≥ 95%
12,CNC(=O)Nc1cc2n(n1)CCN2c1cc(Br)cc(C(=O)O)c1 [Compound I-149],≥ 95%
13,CNC(=O)Nc1nc2c(s1)CN(c1cc(Oc3ccccc3)nc(OC(C)(C)C)n1)CC2 [Compound I-150],≥ 95%
14,CNC(=O)Nc1nc2c(s1)CN(c1cc(Oc3ccccc3)nc(O)n1)CC2 [Compound I-151],80%
15,CNC(=O)Nc1cc2n(n1)CCN2c1cccc(CC(=O)OC(C)(C)C)c1 [Compound I-152],≥ 95%
16,CNC(=O)Nc1cc2n(n1)CCN2c1cccc(CC(=O)O)c1 [Compound I-153],74%
17,CNC(=O)Nc1cc2n(n1)CCN2c1cc(C(=O)OC)cc(-c2ccccc2)c1 [Compound I-161],≥ 95%
18,CNC(=O)Nc1cc2n(n1)CCN2c1cc(Nc2ccccc2)cc(C(=O)OC)c1 [Compound I-162],≥ 95%
19,CNC(=O)Nc1cc2n(n1)CCN2c1cc(C(=O)O)cc(-c2ccccc2)c1 [Compound I-163],≥ 95%
20,CNC(=O)Nc1cc2n(n1)CCN2c1cccc(-c2cnc(C)o2)c1 [Compound I-164],≥ 95%
21,CNC(=O)Nc1cc2n(n1)CCN2c1cccc(C(C)=O)c1 [Compound I-165],≥ 95%
22,CNC(=O)Nc1cc2n(n1)CCN2c1cc(Nc2ccccc2)cc(C(=O)O)c1 [Compound I-166],≥ 95%
23,CNC(=O)Nc1cc2n(n1)CCN2c1cc(Br)cc(C(=O)OC(C)(C)C)c1 [Compound I-167],92%
24,CNC(=O)Nc1cc2n(n1)CCN2c1ccc(F)c(OC)c1 [Compound I-168],≥ 95%
25,CNC(=O)Nc1cc2n(n1)CCN2c1ccc(C(=O)N(C)C)cc1 [Compound I-169],≥ 95%
26,CNC(=O)Nc1nc2c(s1)CN(c1cc(C(=O)NCCO)nc(Cl)n1)CC2 [Compound I-170],≥ 95%

# — patent US20110230472A1, “RING-FUSED AZOLE DERIVATIVE HAVING PI3K-INHIBITING ACTIVITY” (Shionogi & Co., Ltd., priority 2008, published 2011)
